Columns and labels:
[1] = Taft steric parameter Es of sterically hindering group; format: physicochemical; parameters: key: Taft steric parameter Es, referenced to H = 0 (more negative = bulkier)
Description: Y is a monovalent organic group which sterically hinders leuco dye formation. The sterically hindering group is characterizedby a negative Es value greater than the absolute value of -1.5 and more preferably greater than the absolute value of -2.0. The Es value refers to the Taft steric parameter, referenced to H=O and defined as: […]
where k refers to the rate constant for the acid hydrolysis of esters of the type X--CH2 COOR and 1.24 is the hydrolysis rate of formate. A detailed description of this parameter is provided by S. H. Unger and C. Hansch, Prog. Phys. Org. Chem., 12, 91 (1976).

π value of R^4 group = format: physicochemical; parameters: key: π from partition coefficients of derivative (Px) vs parent (PH); settings: substituent R^4
Experimental: R^4 is a monovalent organic group with a π value of at least 2.1. As used herein, the π value is determined by the equation: […]
where Px is the partition coefficient of a derivative and PH is the partition coefficient of the parent compound. A detailed description of the determination of the π value is provided by A. Leo, C. Hansch and D. Elkins, Chem. Rev., 71, 525 (1971).

SMILES | Es Value for Sterically Hindering Group [1] | π Value for R^4 (π value of R^4 group)
CCCCCCCCCCCC(=O)Nc1ccc(Oc2ccc(C(C)(C)CC)cc2C(C)(C)CC)c(C(=O)NC2=NN(c3c(Cl)cc(Cl)cc3Cl)C(=O)C2n2cccn2)c1 (stereo not drawn) [Example 13] | -3.0 | 
CCC(C)(C)c1ccc(Oc2ccc([N+](=O)[O-])cc2C(=O)NC2=NN(c3c(Cl)cc(Cl)cc3Cl)C(=O)C2n2cccn2)c(C(C)(C)CC)c1 (stereo not drawn) [Example 12] | -3.0 | 
CCCCCCCCCCCCC(Oc1ccc(C(C)(C)CC(C)(C)C)cc1)C(=O)NC1=NN(c2c(Cl)cc(Cl)cc2Cl)C(=O)C1n1cccn1 (stereo not drawn) [Example 17] | -2.6 | 6.5
CCCCCCCCCCCCCCCCC(Oc1ccc(C(C)(C)CC)cc1C(C)(C)CC)C(=O)NC1=NN(c2c(Cl)cc(Cl)cc2Cl)C(=O)C1n1cccn1 (stereo not drawn) [Example 8] | -3.0 | 8.6
CCCCCCCCCCCCC(Oc1ccc(C(C)(C)CC(C)(C)C)cc1C(C)(C)CC(C)(C)C)C(=O)NC1=NN(c2c(Cl)cc(Cl)cc2Cl)C(=O)C1n1cccn1 (stereo not drawn) [Example 3] | -2.6 | 6.5
CCCCCCC(Oc1ccc(C(C)(C)CC)cc1C(C)(C)CC)C(=O)NC1=NN(c2c(Cl)cc(Cl)cc2Cl)C(=O)C1n1cccn1 (stereo not drawn) [Example 5] | -3.0 | 3.2
CCC(C)(C)c1ccc(OCC(=O)Nc2ccc(Oc3ccc(C(C)(C)CC)cc3C(C)(C)CC)c(C(=O)NC3=NN(c4c(Cl)cc(Cl)cc4Cl)C(=O)C3n3cccn3)c2)c(C(C)(C)CC)c1 (stereo not drawn) [Example 15] | -3.0 | 
CCCCCCCCCCCCC(Oc1ccc(CCCCC)cc1CCCCC)C(=O)NC1=NN(c2c(Cl)cc(Cl)cc2Cl)C(=O)C1n1cccn1 (stereo not drawn) [Example 10] | -1.6 | 6.5

Continued, values first:

Es Value for Sterically Hindering Group [1] | π Value for R^4 (π value of R^4 group) | SMILES
-3.0 | 6.5 | CCCCCCCCCCCCC(Oc1ccc(C(C)(C)CC)cc1C(C)(C)CC)C(=O)NC1=NN(c2c(Cl)cc(Cl)cc2Cl)C(=O)C1n1cccn1 (stereo not drawn) [Example 7]
-3.0 | 2.1 | CCCCC(Oc1ccc(C(C)(C)CC)cc1C(C)(C)CC)C(=O)NC1=NN(c2c(Cl)cc(Cl)cc2Cl)C(=O)C1n1cccn1 (stereo not drawn) [Example 4]
-3.0 | 4.3 | CCCCCCCCC(Oc1ccc(C(C)(C)CC)cc1C(C)(C)CC)C(=O)NC1=NN(c2c(Cl)cc(Cl)cc2Cl)C(=O)C1n1cccn1 (stereo not drawn) [Example 6]
-2.6 | 4.3 | CCCCCCCCC(Oc1ccc(C(C)(C)CC(C)(C)C)cc1C(C)(C)CC(C)(C)C)C(=O)NC1=NN(c2c(Cl)cc(Cl)cc2Cl)C(=O)C1n1cccn1 (stereo not drawn) [Example 2]
-2.6 | 3.2 | CCCCCCC(Oc1ccc(C(C)(C)CC(C)(C)C)cc1C(C)(C)CC(C)(C)C)C(=O)NC1=NN(c2c(Cl)cc(Cl)cc2Cl)C(=O)C1n1cccn1 (stereo not drawn) [Example 1]
-2.6 | 4.3 | CCCCCCC(Oc1cc2c(cc1C(C)(C)CC(C)(C)C)OC(C)(C)CC2(C)C)C(=O)NC1=NN(c2c(Cl)cc(Cl)cc2Cl)C(=O)C1n1cccn1 (stereo not drawn) [Example 9]
-2.6 | 6.5 | CCCCCCCCCCCCC(Oc1ccc(C)cc1C(C)(C)CC(C)(C)C)C(=O)NC1=NN(c2c(Cl)cc(Cl)cc2Cl)C(=O)C1n1cccn1 (stereo not drawn) [Example 16]
-2.8 | 6.5 | CCCCCCCCCCCCC(Oc1cc(C(C)(C)C)cc(C(C)(C)C)c1)C(=O)NC1=NN(c2c(Cl)cc(Cl)cc2Cl)C(=O)C1n1cccn1 (stereo not drawn) [Example 11]
-3.0 |  | CCCCCCCCCCC(Oc1ccc(S(=O)(=O)c2ccc(OCc3ccccc3)cc2)cc1)C(=O)Nc1ccc(Oc2ccc(C(C)(C)CC)cc2C(C)(C)CC)c(C(=O)NC2=NN(c3c(Cl)cc(Cl)cc3Cl)C(=O)C2n2cccn2)c1 (stereo not drawn) [Example 14]

From US5610003A, “Two-equivalent magenta photographic couplers with activity-modifying ballasting groups” (Eastman Kodak Company, priority 1995, dated 1997)
